One assay deals with intracellular CDK8 (Homo sapiens (Human), UniProt P49336). Nature of the assay: Endogenous phosphoSTAT1 inhibition in SW620 cells growing in 10% FBS. The class given is cell-based. The settings on record: read-out: SW620 P-STAT1(S727). The gist of the method: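 SW620 cells in 10% FBS treated 8 h with compound, then lysed and phospho-STAT1 measured relative to total STAT1.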
The target in another assay is intracellular HASPIN (Homo sapiens (Human), UniProt Q8TF76). Nature of the assay: Endogenous phosphoH3 inhibition in SW620 cells growing in 10% FBS. The class given is cell-based. The settings on record: read-out: SW620 pH3(T3). As to the method:
Endogenous phosphoH3 inhibition can be screened in cells growing in 10% FBS. Cells are plated as described before and treated for 8 h with compounds as described before. Then cells are lysated and phospho H3 evaluated as described before. The percentage of phosphorylated H3 vs total H3 in cells treated with DMSO is taken as hundred percent of phosphorylation. The percentage of H3 phosphorylation is finally plotted against concentration for each compound and EC50s for intracellular HASPIN inhibition are calculated using ActivityBase from IDBS.

The next assay relates to DU145. Kind of assay: Combination assay, DU145. It counts as cell-based. As for the experimental part: (§1) The combination index (CI) of combinations of certain example compounds and various chemotherapeutic agents in the CellTitetI-Glo® in vitro cell proliferation assays may be tested. A combination index score is calculated by the Chou and Talalay method (CalcuSyn software, Biosoft). The strength of synergy is scored using the ranking system Chou and Talalay: CI less than 0.8 indicates synergy, CI between 0.8 and 1.2 indicates additivity and CI greater than 1.2 indicates antagonism.
The EC50 values of representative combinations are also calculated. The individually measured EC50 values of the chemotherapeutic agent and the example compounds are compared to the EC50 value of the combination. The cell lines are characterised by tumor type. […] Blanco-Aparicio, Carmen; Collazo, Ana Maria Garcia; Oyarzabal, Julen; Leal, Juan F.; Albaran, Maria Isabel; Lima, Francisco Ramos; Pequeno, Belen; Ajenjo, Nuria; Becerra, Mercedes; Alfonso, Patricia; Reymundo, Maria Isabel; Palacios, Irene; Mateos, Genoveva; Quinones, Helena; Corrionero, Ana; Carnero, Amancio; Pevarello, Paolo; Lopez, Ana Rodriguez; Fominaya, Jesus; Pastor, Joaquin; Bischoff, James R. Cancer Letters (Shannon, Ireland) 2011, 300(2), 145-153

In a further assay the test system is SW620 cells. Nature of the assay: Colony formation assay. The class given is cell-based, human. The settings on record: SW620 cells treated 11 days. As for the experimental part:
The in vitro potency of the compounds was measured by colony formation assays. SW620 cells in logarithmic growth phase are plated at 800 cells per well in 6-well plates (Solmeglas 13118) in RPMI media (Sigma-Aldrich R6504) supplemented with 10% foetal bovine serum (Sigma-Aldrich F7524), Penicillin/Streptomycin solution diluted 1:100 (Gibco 15070-063), and fungizone (Gibco, 15290-018), and allowed to adhere overnight at 37° C. in 5% CO2. Compounds are then added to the cell media from a final concentration of 10 μM in 10-fold serial dilutions and the cells are incubated at 37° C. in 5% CO2. Every three days the medium is changed by fresh medium and compounds are added again. After 11 days, colonies are washed with PBS and fixed in 0.5% crystal violet (Sigma-Aldrich Ref. V5265), 6% glutaraldehide (Sigma-Aldrich Ref. G5882) for 30 minutes. After extensive washing, colonies are dissolved in 2 ml of 10% glacial acetic acid (Sigma-Aldrich Ref. 537020) and absorbance at 590 nm is measured in the Victor 1420 Multilabel Counter (Perkin Elmer). The absorbance in cells treated with DMSO is taken as hundred percent of proliferation. The percentage of proliferation is finally plotted against concentration for each compound and EC50s for colony formation inhibition are calculated using ActivityBase from IDBS.

Another assay deals with MDAMB231. Nature of the assay: Combination assay, MDAMB231. It counts as cell-based. As to the method:
as §1
(§2) The EC50 values of representative combinations are also calculated. The individually measured EC50 values of the chemotherapeutic agent and the example compounds are compared to the EC50 value of the combination. The cell lines are characterised by tumor type. Combination assays are performed as described in: “Pim 1 kinase inhibitor ETP-45299 suppresses cellular proliferation and synergizes with PI3K inhibition”. Blanco-Aparicio, Carmen; Collazo, Ana Maria Garcia; Oyarzabal, Julen; Leal, Juan F.; Albaran, Maria Isabel; Lima, Francisco Ramos; Pequeno, Belen; Ajenjo, Nuria; Becerra, Mercedes; Alfonso, Patricia; Reymundo, Maria Isabel; Palacios, Irene; Mateos, Genoveva; Quinones, Helena; Corrionero, Ana; Carnero, Amancio; Pevarello, Paolo; Lopez, Ana Rodriguez; Fominaya, Jesus; Pastor, Joaquin; Bischoff, James R. Cancer Letters (Shannon, Ireland) 2011, 300(2), 145-153

The test system of the next assay is HCT116. Nature of the assay: Combination assay, HCT116. It counts as cell-based. Put shortly: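 Cells treated with example compounds combined with chemotherapeutic agents, proliferation read by CellTiter-Glo. Combination index from the Chou–Talalay method (CI <0.8 synergy, 0.8–1.2 additivity, >1.2 antagonism); EC50 of the combination also derived alongside single-agent EC50s.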

In the next assay the test system is BXPC-3. Kind of assay: Combination assay, BXPC-3. It counts as cell-based. As for the experimental part: as §1, §2
A further assay concerns panel of 468 kinases. Nature of the assay: KINOMEscan kinase panel selectivity score. The class given is binding. The source says: Compounds of the invention may have the advantage that they are effective inhibitors of protein kinases (e.g. CDK8 and/or haspin). […] For instance, the compounds of the invention may be selective inhibitors of certain protein or lipid kinases. […] Compounds that are selective inhibitors may be identified by screening in a 453-468 kinases panel (KINOMEscan™ from DiscoveRx). For example, selective inhibitors may show a selectivity score of S(20)<0.05.
Selectivity Score (or S-score) is a quantitative measure of a compound's selectivity. It is calculated by dividing the number of kinases to which a compound binds by the total number of distinct kinases tested (i.e. S=Number of hits/Number of assays).

Setting [1] is: DU145, combination with Alisertib.
Setting [2] is: DU145, combination with Crizotinib.
Where [3] appears, read: MDAMB231, combination with Elesclomol.
Setting [4] is: HCT116, combination with Alisertib.
[5] abbreviates: HCT116, combination with Crizotinib.
Where [6] appears, read: BXPC-3, combination with Crizotinib.
Where [7] appears, read: BXPC-3, combination with Elesclomol.

The values that follow come from US10208056B2, “Condensed tricyclic compounds as protein kinase inhibitors” (FUNDACIÓN DEL SECTOR PÚBLICO ESTATAL CENTRO NACIONAL DE …, priority 2015, dated 2019).

Where two headings read alike, the source gives them in different places. Some results are limits rather than exact numbers.

Broadly, the GI50 is the concentration that inhibits growth by half.

Sequence of intracellular HASPIN (Q8TF76 whole entry): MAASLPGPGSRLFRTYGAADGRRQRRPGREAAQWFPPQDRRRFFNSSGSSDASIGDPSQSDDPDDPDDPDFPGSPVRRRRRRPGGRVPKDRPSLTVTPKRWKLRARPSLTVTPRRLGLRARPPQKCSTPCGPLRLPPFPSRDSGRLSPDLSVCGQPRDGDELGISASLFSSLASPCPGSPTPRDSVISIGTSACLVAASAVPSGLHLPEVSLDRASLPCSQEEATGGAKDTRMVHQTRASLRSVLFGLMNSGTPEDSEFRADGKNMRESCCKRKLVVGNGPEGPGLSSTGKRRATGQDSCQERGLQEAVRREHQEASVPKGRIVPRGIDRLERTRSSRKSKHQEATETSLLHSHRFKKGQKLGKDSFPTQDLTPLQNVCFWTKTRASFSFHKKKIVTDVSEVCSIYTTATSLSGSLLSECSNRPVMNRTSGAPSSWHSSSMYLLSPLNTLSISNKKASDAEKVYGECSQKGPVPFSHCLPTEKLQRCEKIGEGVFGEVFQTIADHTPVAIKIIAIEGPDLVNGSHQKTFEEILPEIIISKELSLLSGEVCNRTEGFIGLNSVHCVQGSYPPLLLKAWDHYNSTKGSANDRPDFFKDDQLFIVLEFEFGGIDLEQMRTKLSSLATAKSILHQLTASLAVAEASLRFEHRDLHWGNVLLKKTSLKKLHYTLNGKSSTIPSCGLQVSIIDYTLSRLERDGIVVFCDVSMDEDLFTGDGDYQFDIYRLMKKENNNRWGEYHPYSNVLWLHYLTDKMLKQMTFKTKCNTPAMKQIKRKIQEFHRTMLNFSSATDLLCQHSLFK
Sequence of intracellular CDK8 (P49336 whole entry): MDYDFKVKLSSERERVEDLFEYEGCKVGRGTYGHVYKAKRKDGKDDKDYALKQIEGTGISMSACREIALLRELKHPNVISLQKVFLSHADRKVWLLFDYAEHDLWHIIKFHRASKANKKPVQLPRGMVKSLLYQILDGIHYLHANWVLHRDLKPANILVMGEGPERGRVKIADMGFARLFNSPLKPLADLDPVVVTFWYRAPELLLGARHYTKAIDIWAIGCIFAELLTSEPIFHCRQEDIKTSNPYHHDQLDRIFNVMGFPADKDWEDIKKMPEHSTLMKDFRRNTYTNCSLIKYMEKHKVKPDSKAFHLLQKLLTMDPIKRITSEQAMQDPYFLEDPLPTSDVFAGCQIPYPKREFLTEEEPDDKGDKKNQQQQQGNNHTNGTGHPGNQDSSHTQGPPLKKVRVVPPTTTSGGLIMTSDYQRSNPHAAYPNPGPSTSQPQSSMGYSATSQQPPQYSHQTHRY
Sequence of intracellular CDK8 (P24863 whole entry partner): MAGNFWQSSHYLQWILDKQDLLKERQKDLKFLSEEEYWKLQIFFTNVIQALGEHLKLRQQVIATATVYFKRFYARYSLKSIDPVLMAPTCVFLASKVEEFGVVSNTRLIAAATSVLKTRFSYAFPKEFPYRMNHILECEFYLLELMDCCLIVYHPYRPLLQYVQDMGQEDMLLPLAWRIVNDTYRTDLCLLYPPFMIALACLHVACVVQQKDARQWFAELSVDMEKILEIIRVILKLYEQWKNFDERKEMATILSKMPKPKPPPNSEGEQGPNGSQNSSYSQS
Sequence of intracellular CDK8 (Q93074 whole entry partner): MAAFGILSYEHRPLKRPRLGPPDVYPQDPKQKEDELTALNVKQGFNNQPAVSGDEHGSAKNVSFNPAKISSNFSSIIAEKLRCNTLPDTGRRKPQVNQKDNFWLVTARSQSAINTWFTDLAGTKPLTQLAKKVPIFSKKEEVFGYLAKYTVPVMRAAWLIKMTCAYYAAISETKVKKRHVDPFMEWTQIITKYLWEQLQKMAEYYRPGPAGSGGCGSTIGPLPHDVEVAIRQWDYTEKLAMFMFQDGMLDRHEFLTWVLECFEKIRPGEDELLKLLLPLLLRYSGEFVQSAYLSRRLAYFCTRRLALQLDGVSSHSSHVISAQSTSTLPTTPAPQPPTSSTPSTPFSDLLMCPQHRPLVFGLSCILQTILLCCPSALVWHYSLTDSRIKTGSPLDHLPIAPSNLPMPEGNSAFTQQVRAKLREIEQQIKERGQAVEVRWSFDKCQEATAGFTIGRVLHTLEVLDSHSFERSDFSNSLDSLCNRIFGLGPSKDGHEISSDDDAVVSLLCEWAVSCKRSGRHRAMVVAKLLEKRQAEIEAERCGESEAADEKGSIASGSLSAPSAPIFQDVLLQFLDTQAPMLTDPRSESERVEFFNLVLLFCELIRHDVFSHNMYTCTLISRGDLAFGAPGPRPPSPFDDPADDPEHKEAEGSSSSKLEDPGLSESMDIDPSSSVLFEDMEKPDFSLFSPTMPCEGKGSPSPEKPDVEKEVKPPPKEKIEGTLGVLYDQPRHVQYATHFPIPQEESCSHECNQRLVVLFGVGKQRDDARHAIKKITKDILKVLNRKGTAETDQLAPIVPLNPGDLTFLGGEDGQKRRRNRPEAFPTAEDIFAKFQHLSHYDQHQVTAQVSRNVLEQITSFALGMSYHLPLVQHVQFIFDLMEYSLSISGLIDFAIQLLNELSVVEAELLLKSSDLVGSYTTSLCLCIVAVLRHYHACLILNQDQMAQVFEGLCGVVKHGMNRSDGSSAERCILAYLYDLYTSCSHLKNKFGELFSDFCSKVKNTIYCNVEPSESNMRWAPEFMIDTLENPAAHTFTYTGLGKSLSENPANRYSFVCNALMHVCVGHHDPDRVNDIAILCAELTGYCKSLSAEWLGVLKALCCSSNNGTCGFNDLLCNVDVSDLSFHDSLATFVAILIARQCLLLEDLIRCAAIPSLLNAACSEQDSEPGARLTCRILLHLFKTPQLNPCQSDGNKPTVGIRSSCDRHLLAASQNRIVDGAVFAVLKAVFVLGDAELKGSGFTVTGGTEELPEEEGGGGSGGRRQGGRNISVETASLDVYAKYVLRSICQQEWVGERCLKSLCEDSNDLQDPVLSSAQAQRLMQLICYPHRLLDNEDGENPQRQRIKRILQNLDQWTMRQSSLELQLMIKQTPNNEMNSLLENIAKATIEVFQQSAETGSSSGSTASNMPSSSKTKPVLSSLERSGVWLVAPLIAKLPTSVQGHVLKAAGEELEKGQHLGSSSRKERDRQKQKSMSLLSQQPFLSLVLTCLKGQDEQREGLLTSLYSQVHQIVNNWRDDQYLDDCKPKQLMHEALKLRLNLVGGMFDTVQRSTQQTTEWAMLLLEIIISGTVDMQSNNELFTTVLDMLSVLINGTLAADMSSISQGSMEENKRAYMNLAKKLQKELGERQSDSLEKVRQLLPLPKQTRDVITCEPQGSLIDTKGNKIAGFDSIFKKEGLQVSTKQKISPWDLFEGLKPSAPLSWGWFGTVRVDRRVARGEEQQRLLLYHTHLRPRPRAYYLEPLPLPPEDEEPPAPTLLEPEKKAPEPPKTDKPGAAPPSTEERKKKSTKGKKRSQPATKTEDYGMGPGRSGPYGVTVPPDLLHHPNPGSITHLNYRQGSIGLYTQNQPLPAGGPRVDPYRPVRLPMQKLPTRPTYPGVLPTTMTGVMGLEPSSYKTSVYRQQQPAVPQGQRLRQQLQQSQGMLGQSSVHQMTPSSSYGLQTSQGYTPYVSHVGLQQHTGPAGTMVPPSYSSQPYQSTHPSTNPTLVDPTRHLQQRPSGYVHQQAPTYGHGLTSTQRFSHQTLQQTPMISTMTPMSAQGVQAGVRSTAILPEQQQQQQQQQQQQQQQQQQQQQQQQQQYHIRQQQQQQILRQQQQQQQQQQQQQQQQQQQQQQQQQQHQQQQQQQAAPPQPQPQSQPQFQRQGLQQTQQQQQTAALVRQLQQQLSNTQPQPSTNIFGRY

For the compound `CCn1c(C(N)=O)cc2c1-c1ccncc1OC2(C)C` [Example 43], the EC50 at intracellular CDK8 (quantitative) was 1.5 nM; on intracellular HASPIN (quantitative), 1.6 nM; in the assay with SW620 cells (Homo sapiens, SW-620, 264 h, read-out: mean EC50, colony forming assay), 51 ± 69 nM. For the same compound, the “Combination index (CI)” value with DU145 (setting [1]) came to 0.65; in the assay with DU145 (setting [2]), 0.44; in the assay on DU145 (DU145, combination with Taxol), 0.21; in the assay on MDAMB231 (setting [3]) it was 0.59; in the assay with HCT116 (setting [4]), 0.64; with HCT116 (setting [5]), 0.58. The “Combination index (CI)” value with HCT116 (HCT116, combination with Taxol) is recorded as 0.63; in the assay with BXPC-3 (setting [6]) it was 0.72; in the assay on BXPC-3 (setting [7]) it was 0.25. Besides, the Synergy result was “++ (0.3 < CI < 0.7 (++))” with DU145 (setting [1]); “++ (0.3 < CI < 0.7 (++))” in the assay with DU145 (setting [2]); “+++ (0.1 < CI < 0.3 (+++))” in the assay on DU145 (DU145, combination with Taxol); “++ (0.3 < CI < 0.7 (++))” in the assay on MDAMB231 (setting [3]); “++ (0.3 < CI < 0.7 (++))” in the assay on HCT116 (setting [4]); “++ (0.3 < CI < 0.7 (++))” in the assay with HCT116 (setting [5]). Moreover, the Synergy result with HCT116 (HCT116, combination with Taxol) is “++ (0.3 < CI < 0.7 (++))”; in the assay with BXPC-3 (setting [6]), “++ (0.3 < CI < 0.7 (++))”; in the assay with BXPC-3 (setting [7]), “++ (0.3 < CI < 0.7 (++))”. For the same compound, the GI50 was found to be 5000 nM in the assay on DU145 (Homo sapiens, DU-145, DU145, example compound alone, read-out: CDK8 inh GI50); 5000 nM with MDAMB231 (Homo sapiens, MDA-MB-231, MDAMB231, example compound alone, read-out: CDK8 inh GI50); 5000 nM in the assay on HCT116 (Homo sapiens, HCT-116, HCT116, example compound alone, read-out: CDK8 inh GI50); 5000 nM with BXPC-3 (Homo sapiens, BXPC-3, example compound alone, read-out: CDK8 inh GI50). Also, in the assay with SW620 cells, the “effect in colony forming assay” value is listed as “dose-dependent effect”. In addition, the “Selectivity score S(20)” value in the assay on panel of 468 kinases was determined as 0.038.

For the compound `CC1(C)Oc2cnccc2-c2c1cc(C(N)=O)n2CCF` [Example 52], the EC50 at intracellular CDK8 (semiquantitative) and on intracellular HASPIN (semiquantitative) was less than 500 nM throughout.

Take `CCn1c(C(N)=O)c(-c2ccccc2OC)c2c1-c1ccncc1OC2(C)C` [Example 68]: the EC50 at intracellular CDK8 (semiquantitative) and at intracellular HASPIN (semiquantitative) was less than 500 nM in each case.
